The source of these data is patent publication US20020161007A1, “Non-steroidal modulators of estrogen receptors” (priority 2001, published 2002).

Like-named read-outs stand apart in the source and are kept apart here.

For this experiment, the system named is human breast tumor MCF-7 cell line. Briefly: MTT antiproliferative assay on human MCF-7 cell line. Conditions: MTT inhibition of proliferation, mean of triplicate determinations. The format is cell-based. An excerpt: EXAMPLE 14—Determination of the antiproliferative effects on human MCF-7 cell lines.
MTT is a yellow tetrazolium salt which is taken up only by metabolically active cells and subsequently cleaved by mitochondrial dehydrogenases to yield a purple crystalline formazan dye. On solubilisation this purple color may be read spectrophotometrically at 570 nm. The absorbance measured at this wavelength is directly proportional to the amount of viable cells present.
Procedure : The human breast tumor MCF-7 cell line was cultured in Eagles minimum essential medium in a 5% CO2 atmosphere with 10% fetal calf serum. The medium was supplemented with 1% non-essential amino acids. The cells were trypsinized and seeded at a density of 1.5×10^4 into a 96-well plate and incubated at 37° C., 5% CO2 atmosphere for 24 h. […] Control wells contained the equivalent volume of the vehicle ethanol (1% v/v). The culture medium was then removed and the cells washed with 100 μl PBS and 50 μl MTT added, to reach a final concentration of 1 mg/ml MTT added. The cells were incubated for 2 h in darkness at […]. At this point solubilisation was begun through the addition of 200 μl DMSO and the cells maintained at room temperature in darkness for 20 min to ensure thorough color diffusion before reading the absorbance. The absorbance value of control cells (no added compound) was set to 100% cell viability. Graphs of absorbance versus cell density per well were prepared to assess cell viability.
(In general: Tetrazolium dyes change colour on reduction, which living cells bring about.)

Setting [1] is: Homo sapiens, MCF7, read-out: IC50 Range.
The mark [2] stands for this setting: Homo sapiens, MCF7, read-out: IC50.

Take `CCC(=C(Cc1ccccc1)c1ccccc1)c1ccc(OCCN2CCOCC2)cc1` [Compound 15, 1-Benzyl-1-phenyl-2-[(4-morpholinylethoxy)phenyl]but-1-ene]: where the note is “read-out: IC50 Range”, the IC50 was 50 to 55 µM.

With `CCC(Cc1ccccc1)=C(c1ccccc1)c1ccc(OCCN(CC)CC)cc1` [Compound 2, 2-Benzyl-1-phenyl-1-[4-(diethylaminoethoxy)phenyl]but-1-ene], under setting [1], the IC50 lay in the range of 10 to 15 µM.

As for `CCC(Cc1ccccc1)=C(c1ccccc1)c1ccc(NCCN(C)C)cc1` [Compound 42, N′-[4-(2-Benzyl-1-phenylbut-1-enyl)-phenyl]-N,N-dimethylethane-1,2-diamine], under setting [2], the IC50 was 13.7 µM.

Turning to `CC/C(=C(\Cc1ccccc1)c1ccc(OCCN2CCOCC2)cc1)c1ccccc1` [Compound 10, 1-Benzyl-2-phenyl[1-(5-morpholinylethoxy)phenyl]but-1-ene], the IC50 under setting [1] was 1 to 5 µM.

With `CCC(=C(Cc1ccccc1)c1ccccc1)c1ccc(OCCN2CCCC2)cc1` [Compound 13, 1-Benzyl-1-phenyl-2-[(4-pyrrolidinylethoxy)phenyl]but-1-ene], the IC50 (read-out: IC50 Range) fell in the range of 20 to 25 µM.

On to `CCC(Cc1ccc(O)cc1)=C(c1ccccc1)c1ccc(NCCOC)cc1` [Compound 41, 4-{2-Ethyl-3-[4-(2-methoxyethylamino)-phenyl]-3-phenylallyl}-phenol], for which the IC50 under setting [2] stood at 32.4 µM.

Turning to `CCC(Cc1ccccc1)=C(c1ccccc1)c1ccc(NCCO)cc1` [Compound 33, 2-[4-(2-Benzyl-1-phenylbut-1-enyl)-phenylamino]-ethanol], under setting [2], the IC50 came to 39.5 µM.

For the molecule `CCC(Cc1ccccc1)=C(c1ccc(OCCN2CCCC2)cc1)c1ccc(OC(=O)C(C)(C)C)cc1` [Compound 21], the IC50 (read-out: IC50 Range) was 1 to 10 µM.

On to `CCC(Cc1ccccc1)=C(c1ccccc1)c1ccc(NCCOC)cc1` [Compound 27, [4-(2-Benzyl-1-phenylbut-1-enyl)-phenyl]-(2-methoxyethyl)-amine], for which the IC50 under setting [2] came out at 33.7 µM.

For the molecule `CCC(=C(Cc1ccccc1)c1ccccc1)c1ccc(OCCN(CC)CC)cc1` [Compound 12, 1-Benzyl-1-phenyl-2-[(4-diethylaminoethoxy)phenyl]but-1-ene], the IC50 (read-out: IC50 Range) fell in the range of 20 to 25 µM.

Turning to `CCC(Cc1ccccc1)=C(c1ccc(NCCOC)cc1)c1ccc(OC)cc1` [Compound 37, {4-[2-Benzyl-1-(4-methoxyphenyl)-but-1-enyl]-phenyl}-(2-methoxyethyl)-amine], the IC50 under setting [2] stood at 34.4 µM.

For “1,2-Diphenyl-2-[(4-pipyridinylethoxy)benzyl]but-1-ene [Compound 19]”, the IC50 (read-out: IC50 Range) was in the range of 65 to 70 µM.

`CCC(=C(Cc1ccccc1)c1ccc(OCCN(CC)CC)cc1)c1ccccc1` [Compound 7, 1-Benzyl-2-phenyl-[1-(4-diethylaminoethoxy)phenyl]-but-1-ene]: the IC50 (read-out: IC50 Range) lay in the range of 15 to 20 µM.

`CC/C(=C(/Cc1ccc(OCCN(C)C)cc1)c1ccccc1)c1ccccc1` [Compound 16]: under setting [1], the IC50 lay in the range of 25 to 30 µM.

`CCC(Cc1ccccc1)=C(c1ccccc1)c1ccc(NCCCOC)cc1` [Compound 30, [4-(2-Benzyl-1-phenylbut-1-enyl)-phenyl]-(3-methoxypropyl)-amine]: the IC50 under setting [2] was found to be 35.4 µM.

Turning to `CCOCCNc1ccc(C(=C(CC)Cc2ccccc2)c2ccccc2)cc1` [Compound 28, [4-(2-Benzyl-1-phenylbut-1-enyl)-phenyl]-(2-ethoxyethyl)-amine], the IC50 under setting [2] came to 36.8 µM.

`CCC(Cc1ccccc1)=C(c1ccccc1)c1ccc(NCCCO)cc1` [Compound 34, 3-[4-(2-Benzyl-1-phenylbut-1-enyl)-phenylamino]-propan-1-ol]: the concentration for half-maximal inhibition (IC50) under setting [2] was determined as 34 µM.

As for `CCC(Cc1ccc(OC)cc1)=C(c1ccc(NCCOC)cc1)c1ccc(OC)cc1` [Compound 38, {4-[2-(4-methoxybenzyl)-1-(4-methoxyphenyl)-but-1-enyl]-phenyl}-(2-methoxyethyl)-amine], the IC50 under setting [2] was determined as 51.8 µM.

Take `CCC(Cc1ccc(OC)cc1)=C(c1ccccc1)c1ccc(NCCOC)cc1` [Compound 39, {4-[2-(4-methoxybenzyl)-1-phenylbut-1-enyl]-phenyl}-(2-methoxyethyl)-amine]: the IC50 under setting [2] came out at 49.5 µM.

Turning to `CCOCCCNc1ccc(/C(=C(/CC)Cc2ccccc2)c2ccccc2)cc1` [Compound 31, [4-(2-benzyl-1-phenylbut-1-enyl)-phenyl]-(3-ethoxypropyl)-amine], under setting [2], the IC50 was 14.1 µM.

Take `CC/C(=C(\Cc1ccccc1)c1ccc(OCCN2CCCCC2)cc1)c1ccccc1` [Compound 9, 1-Benzyl-2-phenyl-[1-(4-pipyridinylethoxy)phenyl]-but-1-ene]: under setting [1], the IC50 is 70 to 80 µM.

Regarding `CCC(Cc1ccccc1)=C(c1ccccc1)c1ccc(OCCN2CCOCC2)cc1` [Compound 5, 2-Benzyl-1-phenyl-1-[4-(morpholinylethoxy)phenyl]but-1-ene], the IC50 (read-out: IC50 Range) was 40 to 50 µM.

For `CCC(Cc1ccccc1)=C(c1ccccc1)c1ccc(OCCO)cc1` [Compound 35, 2-[4-(2-Benzyl-1-phenylbut1enyl)-phenoxy]-ethanol], the IC50 under setting [2] was found to be 24.9 µM.

As to `CCC(Cc1ccccc1)=C(c1ccc(O)cc1)c1ccc(OCCN(C)C)cc1` [Compound 24, 4-{2-Benzyl-1-[4-(2-dimethylamino-ethoxy)-phenyl]-but-1-enyl}-phenol], the IC50 under setting [1] lay in the range of 0.01 to 0.1 µM.

With `CCC(Cc1ccccc1)=C(c1ccccc1)c1ccc(OCCOC)cc1` [Compound 40, 1-(2-Benzyl-1-phenylbut-1-enyl)-4-(2-methoxyethoxy)-benzene], the IC50 under setting [2] was 41.7 µM.

Consider `CCCOCCCNc1ccc(C(=C(CC)Cc2ccccc2)c2ccccc2)cc1` [Compound 32, [4-(2-Benzyl-1-phenylbut-1-enyl)-phenyl]-(3-propoxypropyl)-amine], for which the IC50 under setting [2] was determined as 23.3 µM.

For `CC/C(=C(\Cc1ccccc1)c1ccc(OCCN2CCCC2)cc1)c1ccccc1` [Compound 8, 1-Benzyl-2-phenyl-[1-(4-pyrrolidinylethoxy)phenyl]-but-1-ene], the 50% inhibitory concentration (IC50) under setting [1] was 10 to 15 µM.

Take `CCC(Cc1ccccc1)=C(c1ccc(OCCN(C)C)cc1)c1ccc(OC(=O)C(C)(C)C)cc1` [Compound 22]: the IC50 (read-out: IC50 Range) is 10 to 50 µM.

As to `CCCOCCNc1ccc(C(=C(CC)Cc2ccccc2)c2ccccc2)cc1` [Compound 29, [4-(2-Benzyl-1-phenylbut-1-enyl)-phenyl]-(2-propoxyethyl)-amine], the IC50 under setting [2] came out at 46.9 µM.

For `CCC(Cc1ccccc1)=C(c1ccccc1)c1ccc(OCCN2CCCC2)cc1` [Compound 3, 2-Benzyl-1-phenyl-1-[4-(pyrrolidinylethoxy)phenyl]but-1-ene], the IC50 (read-out: IC50 Range) is 1 to 5 µM.

In the case of `CCC(Cc1ccccc1)=C(c1ccccc1)c1ccc(OCCCO)cc1` [Compound 36, 3-[4-(2-Benzyl-1-phenylbut-1-enyl)-phenoxy]-propan-1-ol], the IC50 under setting [2] worked out at 20.2 µM.

On to `CCC(=C(Cc1ccc(OCCN2CCCC2)cc1)c1ccccc1)c1ccccc1` [Compound 18], for which the IC50 (read-out: IC50 Range) was in the range of 140 to 145 µM.

For `CCC(Cc1ccccc1)=C(c1ccc(OCCN2CCOCC2)cc1)c1ccc(OC(=O)C(C)(C)C)cc1` [Compound 23], for the setting “read-out: IC50 Range”, the IC50 lay within 0.1 to 1 µM.

For `CC/C(Cc1ccccc1OC)=C(/c1ccc(OCCN2CCCC2)cc1)c1ccc(OC(=O)C(C)(C)C)cc1` [Compound 26, 2,2-Dimethyl-propionic acid 4-{2-(2-methoxybenzyl)-1-[4-(2-pyrrolidin-1-yl-ethoxy)-phenyl]-but-1-enyl}-phenyl ester], the IC50 under setting [1] fell in the range of 1 to 10 µM.

Regarding `CCC(=C(Cc1ccccc1OCCN(CC)CC)c1ccccc1)c1ccccc1` [Compound 17, 1,2-Diphenyl-2-[2-(diethylaminoethoxy)benzyl]but-1-ene], the IC50 (read-out: IC50 Range) fell in the range of 55 to 60 µM.

As for `CC/C(=C(\Cc1ccccc1)c1ccccc1)c1ccc(OCCN(C)C)cc1` [Compound 11, 1-Benzyl-1-phenyl-2-[(4-dimethylaminoethoxy)phenyl]but-1-ene], the IC50 under setting [1] lay within 115 to 120 µM.

By IC50 is commonly meant the point on the concentration scale where inhibition reaches its midpoint.
